Data published in patent publication US4264736A, “Antibiotic 890A10” (Merck & Co., Inc., priority 1979, dated 1981).

Experiments:
[1] = tested on: Streptococcus agalactiae MB No. 2875; assay: Antibiotic spectrum profile, agar zone of inhibition; assay type: cell-based; settings: MBNO.2875, 0.015 ml of 9.5 μg/ml aqueous solution, 25° C., read-out: Inhib. Zone Diam.
[2] = tested on: Brucella bronchiseptica ATCC 4617; assay: microbe, parasite or virus in culture; assay type: cell-based; settings: Bordetella bronchiseptica, ATCC4617, read-out: Inhib. Zone Diam.
[3] = tested on: Staphylococcus aureus MB No. 698; assay: Antibiotic spectrum profile, agar zone of inhibition; assay type: cell-based; settings: MBNO.698, 0.015 ml of 9.5 μg/ml aqueous solution, 25° C., read-out: Inhib. Zone Diam.
[4] = tested on: Proteus vulgaris ATCC 21100; assay: as above; assay type: cell-based; settings: ATCC21100, 0.015 ml of 9.5 μg/ml aqueous solution, 25° C., read-out: Inhib. Zone Diam.
[5] = tested on: Aerobacter aerogenes MB No. 835; assay: as above; assay type: cell-based; settings: Klebsiella aerogenes, MBNO.835, 0.015 ml of 9.5 μg/ml aqueous solution, 25° C., read-out: Inhib. Zone Diam.
Method: (§1) The test to determine the antibiotic spectrum profiles of antibiotic 890A10 is carried out by application of a 0.015 ml. droplet of a 9.5 μg./ml. aqueous solution of the antibiotic on the surface of a 100×15 mm. petri plate containing 3 ml. of seeded nutrient agar plus 0.2% yeast extract which is incubated at 25° C.

Bacillus sp. MB No. 633 = assay: as above; assay type: cell-based; settings: 0.015 ml of 9.5 μg/ml aqueous solution, 25° C., read-out: Inhib. Zone Diam.
Method: as §1

[6] = tested on: Serratia marcescens ATCC 890; assay: as above; assay type: cell-based; settings: ATCC890, 0.015 ml of 9.5 μg/ml aqueous solution, 25° C., read-out: Inhib. Zone Diam.
Method: as §1

[7] = tested on: Pseudomonas aeruginosa MB No. 2824; assay: as above; assay type: cell-based; settings: MBNO.2824, 0.015 ml of 9.5 μg/ml aqueous solution, 25° C., read-out: Inhib. Zone Diam.
[8] = tested on: Protcus vulgaris MB No. 1012; assay: as above; assay type: cell-based; settings: 0.015 ml of 9.5 μg/ml aqueous solution, 25° C., read-out: Inhib. Zone Diam.
[9] = tested on: Alcaligenes faecalis ATCC 213; assay: as above; assay type: cell-based; settings: ATCC213, 0.015 ml of 9.5 μg/ml aqueous solution, 25° C., read-out: Inhib. Zone Diam.
[10] = tested on: Proteus vulgaris MB No. 2112 (episome); assay: as above; assay type: cell-based; settings: read-out: Inhib. Zone Diam.
[11] = tested on: Pseudomonas aeruginosa MB No. 979; assay: as above; assay type: cell-based; settings: MBNO.979, 0.015 ml of 9.5 μg/ml aqueous solution, 25° C., read-out: Inhib. Zone Diam.
[12] = tested on: various gram-positive and gram-negative bacteria; assay: Antibacterial activity (statement); assay type: cell-based
[13] = tested on: Xanthomonas vesicatoria MB No. 815; assay: Antibiotic spectrum profile, agar zone of inhibition; assay type: cell-based; settings: MBNO.815, 0.015 ml of 9.5 μg/ml aqueous solution, 25° C., read-out: Inhib. Zone Diam.
[14] = tested on: Staphylococcus aureus ATCC 6538 P; assay: as above; assay type: cell-based; settings: ATCC6538, 0.015 ml of 9.5 μg/ml aqueous solution, 25° C., read-out: Inhib. Zone Diam.
bacterial β-lactamases = assay: Inhibition of bacterial β-lactamases (statement); assay type: biochemical
[15] = tested on: Proteus mirabilis MB No. 3126; assay: Antibiotic spectrum profile, agar zone of inhibition; assay type: cell-based; settings: MBNO.3126, 0.015 ml of 9.5 μg/ml aqueous solution, 25° C., read-out: Inhib. Zone Diam.
[16] = Electrophoresis at neutral pH; assay type: physicochemical; settings: 50 volts/cm, 0.03 M potassium phosphate buffer, pH 7.1, 30 minutes
Method: Antibiotic 890A10 is an acidic substance which migrates toward the positive pole on electrophoresis at neutral pH. At a gradient of 50 volts/cm. in 0.03 M potassium phosphate buffer, pH 7.1, the antibiotic moves 8.0 cm. in 30 minutes, compared with a movement of 4.0 cm. for 890A1. The disodium salt is a white or slightly yellow powder as lyophilized from aqueous solution. Under acidic conditions in aqueous solution, the antibiotic is unstable, and the free acid form has not been isolated.

[17] = tested on: Escherichia coli ATCC 9637; assay: Antibiotic spectrum profile, agar zone of inhibition; assay type: cell-based; settings: ATCC9637, 0.015 ml of 9.5 μg/ml aqueous solution, 25° C., read-out: Inhib. Zone Diam.
[18] = tested on: Escherichia coli MB No. 1418; assay: as above; assay type: cell-based; settings: MBNO.1418, 0.015 ml of 9.5 μg/ml aqueous solution, 25° C., read-out: Inhib. Zone Diam.
[19] = tested on: Vibrio percolans ATCC 8461; assay: as above; assay type: cell-based; settings: Comamonas terrigena, ATCC8461, 0.015 ml of 9.5 μg/ml aqueous solution, 25° C., read-out: Inhib. Zone Diam.
[20] = tested on: Corynebacterium psedodiph. ATCC 9742; assay: as above; assay type: cell-based; settings: ATCC9742, 0.015 ml of 9.5 μg/ml aqueous solution, 25° C., read-out: Inhib. Zone Diam.
[21] = tested on: Bacillus subtilis ATCC 6633; assay: as above; assay type: cell-based; settings: ATCC6633, 0.015 ml of 9.5 μg/ml aqueous solution, 25° C., read-out: Inhib. Zone Diam.
Sarcina lutea ATCC 9341 = assay: as above; assay type: cell-based; settings: Micrococcus luteus, ATCC9341, 0.015 ml of 9.5 μg/ml aqueous solution, 25° C., read-out: Inhib. Zone Diam.
[22] = tested on: Salmonella gallinarum MB No. 1287; assay: as above; assay type: cell-based; settings: Salmonella enterica, 0.015 ml of 9.5 μg/ml aqueous solution, 25° C., read-out: Inhib. Zone Diam.

SMILES: CC(=O)NCCSC1=C(C(=O)O)N2C(=O)C(C(C)OS(=O)(=O)O)C2C1 (stereo not shown) [Antibiotic 890A10]
- zone of inhibition at 9.5 µg/mL [1]: 29 mm
- zone of inhibition at 9.5 µg/mL [2]: 0 mm
- zone of inhibition at 9.5 µg/mL [3]: 23 mm
- zone of inhibition at 9.5 µg/mL [4]: 30 mm
- zone of inhibition at 9.5 µg/mL [5]: 22 mm
- zone of inhibition at 9.5 µg/mL (Bacillus sp. MB No. 633): 30 mm
- zone of inhibition at 9.5 µg/mL [6]: 15 mm
- zone of inhibition at 9.5 µg/mL [7]: 0 mm
- zone of inhibition at 9.5 µg/mL [8]: 19 mm
- zone of inhibition at 9.5 µg/mL [9]: 24 mm
- zone of inhibition at 9.5 µg/mL [10]: 30 mm
- zone of inhibition at 9.5 µg/mL [11]: 0 mm
- antibacterial activity [12]: active against various gram-positive and gram-negative bacteria
- zone of inhibition at 9.5 µg/mL [13]: 20 mm
- zone of inhibition at 9.5 µg/mL [14]: 20 mm
- inhibition of bacterial β-lactamases (bacterial β-lactamases): potent inhibitor of bacterial β-lactamases
- zone of inhibition at 9.5 µg/mL [15]: 29 mm
- movement toward the positive pole on electrophoresis [16]: 8.0 cm
- zone of inhibition at 9.5 µg/mL [17]: 17 mm
- zone of inhibition at 9.5 µg/mL [18]: 25 mm
- zone of inhibition at 9.5 µg/mL [19]: 33 mm
- zone of inhibition at 9.5 µg/mL [20]: 12 mm
- zone of inhibition at 9.5 µg/mL [21]: 30 mm
- zone of inhibition at 9.5 µg/mL (Sarcina lutea ATCC 9341): 33 mm
- zone of inhibition at 9.5 µg/mL [22]: 28 mm
